This test addresses T1, Aspartate-semialdehyde dehydrogenase (Helicobacter pylori (strain ATCC 700392 / 26695) (Campylobacterpylori), UniProt O25801).
T1 sequence (O25801 whole entry): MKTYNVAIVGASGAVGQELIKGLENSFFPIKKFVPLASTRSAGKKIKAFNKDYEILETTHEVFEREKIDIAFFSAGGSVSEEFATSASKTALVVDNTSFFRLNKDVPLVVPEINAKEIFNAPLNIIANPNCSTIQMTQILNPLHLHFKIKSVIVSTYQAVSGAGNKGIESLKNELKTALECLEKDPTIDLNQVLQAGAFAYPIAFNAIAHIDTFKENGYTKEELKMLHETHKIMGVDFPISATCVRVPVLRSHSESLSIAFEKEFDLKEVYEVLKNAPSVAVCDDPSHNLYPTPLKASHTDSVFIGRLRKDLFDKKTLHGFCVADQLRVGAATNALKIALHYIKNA
Put plainly: Inhibition of Helicobacter pylori His-tagged ASD assessed as inhibition of phosphorylation of aspartate semialdehyde.

The record followed here is ChEMBL document CHEMBL1158777, “Petrosamine B, an inhibitor of the Helicobacter pylori enzyme aspartyl semialdehyde dehydrogenase from the Australian sponge Oceanapia sp” (J Nat Prod, 2005).

pIC50: −log10 of the molar value.

Usually pIC50 stands for the IC50 on a negative log10 scale, so that one unit is a factor of ten. As for `N[C@@H](CSS(=O)(=O)O)C(=O)O`, the pIC50 is 6.74.
The value for `C[n+]1ccc2c(c1)c(O)c1c3c(c4cc(Br)ccc4nc32)C(=O)C[N+]1(C)C` [PETROSAMINE B] was 3.51.
